Measured values from PubChem BioAssay (NCI).
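Grown in 96-well plates, cells were treated for 48 hours with each compound at five concentrations. Insufficient inhibition: endpoint recorded as highest concentration tested. TGI denotes the concentration required for complete inhibition of growth.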

Experiments:
Experiment in all cases: DTP human tumour cell line panel, 48 h
HCC-2998 colon = test system: HCC-2998 colon
SN12C renal = test system: SN12C renal
RPMI-8226 leukemia = test system: RPMI-8226 leukemia
SNB-78 CNS = test system: SNB-78 CNS
KM20L2 colon = test system: KM20L2 colon
HOP-18 NSCLC = test system: HOP-18 NSCLC
M19-MEL melanoma = test system: M19-MEL melanoma
U251 CNS = test system: U251 CNS
SNB-75 CNS = test system: SNB-75 CNS
SW-620 colon = test system: SW-620 colon
COLO 205 colon = test system: COLO 205 colon
SK-MEL-28 melanoma = test system: SK-MEL-28 melanoma
UO-31 renal = test system: UO-31 renal
NCI-H460 lung = test system: NCI-H460 lung
SF-539 CNS = test system: SF-539 CNS
EKVX NSCLC = test system: EKVX NSCLC
HT29 colon = test system: HT29 colon
SK-MEL-5 melanoma = test system: SK-MEL-5 melanoma
UACC-257 melanoma = test system: UACC-257 melanoma
DMS 114 small cell lung = test system: DMS 114 small cell lung
UACC-62 melanoma = test system: UACC-62 melanoma
NCI-H226 lung = test system: NCI-H226 lung
A498 renal = test system: A498 renal
SF-295 CNS = test system: SF-295 CNS
HCT-15 colon = test system: HCT-15 colon
SF-268 CNS = test system: SF-268 CNS
OVCAR-4 ovarian = test system: OVCAR-4 ovarian
SNB-19 CNS = test system: SNB-19 CNS
SN12K1 renal = test system: SN12K1 renal
KM12 colon = test system: KM12 colon
IGROV1 ovarian = test system: IGROV1 ovarian
MCF7 breast = test system: MCF7 breast
CCRF-CEM leukemia = test system: CCRF-CEM leukemia
HCT-116 colon = test system: HCT-116 colon
DLD-1 colon = test system: DLD-1 colon
RXF 393 renal = test system: RXF 393 renal
XF 498 CNS = test system: XF 498 CNS
K-562 leukemia = test system: K-562 leukemia
NCI/ADR-RES ovarian = test system: NCI/ADR-RES ovarian
SR leukemia = test system: SR leukemia
SK-MEL-2 melanoma = test system: SK-MEL-2 melanoma
HOP-62 NSCLC = test system: HOP-62 NSCLC
LOX IMVI melanoma = test system: LOX IMVI melanoma
A549 NSCLC = test system: A549 NSCLC
TK-10 renal = test system: TK-10 renal
SK-OV-3 ovarian = test system: SK-OV-3 ovarian
NCI-H23 lung = test system: NCI-H23 lung
786-0 renal = test system: 786-0 renal
OVCAR-8 ovarian = test system: OVCAR-8 ovarian
HL-60(TB) leukemia = test system: HL-60(TB) leukemia
RXF-631 renal = test system: RXF-631 renal
MOLT-4 leukemia = test system: MOLT-4 leukemia
MALME-3M melanoma = test system: MALME-3M melanoma
NCI-H522 lung = test system: NCI-H522 lung
ACHN renal = test system: ACHN renal
CAKI-1 renal = test system: CAKI-1 renal
OVCAR-5 ovarian = test system: OVCAR-5 ovarian
OVCAR-3 ovarian = test system: OVCAR-3 ovarian
M14 melanoma = test system: M14 melanoma
HOP-92 NSCLC = test system: HOP-92 NSCLC
LXFL 529 NSCLC = test system: LXFL 529 NSCLC
DMS 273 small cell lung = test system: DMS 273 small cell lung

Molecule `C=C1CC(OC)(C(O)C(=O)N[C@H]2OCO[C@H]3C2O[C@H](C[C@@H](COC)OC)C(C)(C)C3OC)O[C@H](C)[C@@H]1C` (stereo partly specified) has a TGI (HCC-2998 colon) of under 0.00482 µM, a TGI (SN12C renal) of under 0.00482 µM and a TGI (RPMI-8226 leukemia) of under 0.00482 µM. For the same molecule, the TGI (SNB-78 CNS) was under 0.00482 µM, the TGI (KM20L2 colon) was under 0.00482 µM and the TGI (HOP-18 NSCLC) was under 0.00482 µM. It also gave a TGI (M19-MEL melanoma) of under 0.00482 µM, a TGI (U251 CNS) of under 0.00482 µM and a TGI (SNB-75 CNS) of under 0.00482 µM. The TGI (SW-620 colon) was 48.2 µM, the TGI (COLO 205 colon) was under 0.00482 µM and the TGI (SK-MEL-28 melanoma) was under 0.00482 µM. The TGI (UO-31 renal) was under 0.00482 µM, the TGI (NCI-H460 lung) was under 0.00482 µM and the TGI (SF-539 CNS) was under 0.00482 µM. For the same molecule, the TGI (EKVX NSCLC) was under 0.00482 µM, the TGI (HT29 colon) was under 0.00482 µM and the TGI (SK-MEL-5 melanoma) was under 0.00482 µM. It also gave a TGI (UACC-257 melanoma) of under 0.00482 µM, a TGI (DMS 114 small cell lung) of under 0.00482 µM and a TGI (UACC-62 melanoma) of under 0.00482 µM. For the same molecule, the TGI (NCI-H226 lung) was under 0.00482 µM, the TGI (A498 renal) was under 0.00482 µM and the TGI (SF-295 CNS) was under 0.00482 µM. The TGI (HCT-15 colon) was under 0.00482 µM, the TGI (SF-268 CNS) was under 0.00482 µM and the TGI (OVCAR-4 ovarian) was under 0.00482 µM. The TGI (SNB-19 CNS) was under 0.00482 µM, the TGI (SN12K1 renal) was under 4.82 nM and the TGI (KM12 colon) was under 0.00482 µM. For the same molecule, the TGI (IGROV1 ovarian) was under 0.00482 µM, the TGI (MCF7 breast) was under 4.82 nM and the TGI (CCRF-CEM leukemia) was under 0.00482 µM. It also gave a TGI (HCT-116 colon) of under 0.00482 µM, a TGI (DLD-1 colon) of under 0.00482 µM and a TGI (RXF 393 renal) of under 0.00482 µM. For the same molecule, the TGI (XF 498 CNS) was under 0.00482 µM, the TGI (K-562 leukemia) was under 0.00482 µM and the TGI (NCI/ADR-RES ovarian) was under 4.82 nM.

Work on `CC1=C[C@@H]2Cc3occc3C(C)(C)[C@@H]2CC1` yielded a TGI (HCC-2998 colon) of 36.2 µM, a TGI (SR leukemia) of 32.7 µM and a TGI (SN12C renal) of 29.8 µM. The TGI (SNB-78 CNS) was 66.6 µM, the TGI (KM20L2 colon) was 33.8 µM and the TGI (SK-MEL-2 melanoma) was 24.5 µM. For the same molecule, the TGI (HOP-18 NSCLC) was 54 µM, the TGI (M19-MEL melanoma) was 31.2 µM and the TGI (U251 CNS) was 32.7 µM. It also gave a TGI (HOP-62 NSCLC) of 92.2 µM, a TGI (LOX IMVI melanoma) of 33.6 µM and a TGI (SNB-75 CNS) of 33.5 µM. It also gave a TGI (SW-620 colon) of 31.8 µM, a TGI (A549 NSCLC) of 49.6 µM and a TGI (COLO 205 colon) of 33.7 µM. For the same molecule, the TGI (TK-10 renal) was 45.4 µM, the TGI (SK-OV-3 ovarian) was over 100 µM and the TGI (SK-MEL-28 melanoma) was 49.5 µM. The TGI (UO-31 renal) was 33.8 µM, the TGI (SF-539 CNS) was 58.7 µM and the TGI (NCI-H23 lung) was 57.3 µM. It also gave a TGI (786-0 renal) of 34.1 µM, a TGI (OVCAR-8 ovarian) of 37.5 µM and a TGI (EKVX NSCLC) of 33 µM. For the same molecule, the TGI (HT29 colon) was 30.3 µM, the TGI (HL-60(TB) leukemia) was 39.1 µM and the TGI (RXF-631 renal) was 38.5 µM. It also gave a TGI (MOLT-4 leukemia) of 39.4 µM, a TGI (MALME-3M melanoma) of 44.2 µM and a TGI (SK-MEL-5 melanoma) of 33.1 µM. The TGI (UACC-257 melanoma) was 44.7 µM, the TGI (DMS 114 small cell lung) was 35.9 µM and the TGI (UACC-62 melanoma) was over 10 µM. The TGI (NCI-H522 lung) was 28.6 µM, the TGI (NCI-H226 lung) was 32.8 µM and the TGI (A498 renal) was 49.6 µM. It also gave a TGI (ACHN renal) of 29.4 µM, a TGI (CAKI-1 renal) of 52.2 µM and a TGI (SF-295 CNS) of 34.1 µM. It also gave a TGI (SF-268 CNS) of 38.3 µM, a TGI (OVCAR-5 ovarian) of 50.3 µM and a TGI (OVCAR-3 ovarian) of 31.5 µM. It also gave a TGI (OVCAR-4 ovarian) of 84.4 µM, a TGI (SNB-19 CNS) of over 10 µM and a TGI (KM12 colon) of 33.4 µM. For the same molecule, the TGI (M14 melanoma) was 47.1 µM, the TGI (HOP-92 NSCLC) was 38.9 µM and the TGI (LXFL 529 NSCLC) was over 100 µM. For the same molecule, the TGI (IGROV1 ovarian) was over 10 µM, the TGI (CCRF-CEM leukemia) was 35.6 µM and the TGI (HCT-116 colon) was 33.7 µM. The TGI (DLD-1 colon) was 32.8 µM, the TGI (RXF 393 renal) was 33.7 µM and the TGI (XF 498 CNS) was 29.3 µM. The TGI (DMS 273 small cell lung) was 26.8 µM and the TGI (K-562 leukemia) was 42.6 µM.

`O=C(Nc1ccccc1[N+](=O)[O-])c1ccccc1` showed a TGI (HCC-2998 colon) of over 100 µM, a TGI (SN12C renal) of over 100 µM and a TGI (RPMI-8226 leukemia) of over 100 µM. The TGI (SNB-78 CNS) was over 100 µM, the TGI (KM20L2 colon) was over 100 µM and the TGI (HOP-18 NSCLC) was over 100 µM. It also gave a TGI (M19-MEL melanoma) of over 100 µM, a TGI (U251 CNS) of over 100 µM and a TGI (HOP-62 NSCLC) of over 100 µM. It also gave a TGI (LOX IMVI melanoma) of over 100 µM, a TGI (SNB-75 CNS) of over 100 µM and a TGI (SW-620 colon) of over 100 µM. It also gave a TGI (A549 NSCLC) of over 100 µM, a TGI (COLO 205 colon) of over 100 µM and a TGI (TK-10 renal) of over 100 µM. It also gave a TGI (SK-OV-3 ovarian) of over 100 µM, a TGI (SK-MEL-28 melanoma) of over 100 µM and a TGI (UO-31 renal) of over 100 µM. It also gave a TGI (NCI-H460 lung) of over 100 µM, a TGI (SF-539 CNS) of over 100 µM and a TGI (NCI-H23 lung) of over 100 µM. The TGI (786-0 renal) was over 100 µM, the TGI (OVCAR-8 ovarian) was over 100 µM and the TGI (EKVX NSCLC) was over 100 µM. For the same molecule, the TGI (HT29 colon) was over 100 µM, the TGI (HL-60(TB) leukemia) was over 100 µM and the TGI (RXF-631 renal) was over 100 µM. It also gave a TGI (MOLT-4 leukemia) of over 100 µM, a TGI (MALME-3M melanoma) of over 100 µM and a TGI (SK-MEL-5 melanoma) of over 100 µM. The TGI (UACC-257 melanoma) was over 100 µM, the TGI (DMS 114 small cell lung) was over 100 µM and the TGI (UACC-62 melanoma) was over 100 µM. For the same molecule, the TGI (NCI-H522 lung) was over 100 µM, the TGI (NCI-H226 lung) was over 100 µM and the TGI (A498 renal) was over 100 µM. For the same molecule, the TGI (ACHN renal) was over 100 µM, the TGI (CAKI-1 renal) was over 100 µM and the TGI (SF-295 CNS) was over 100 µM. For the same molecule, the TGI (HCT-15 colon) was over 100 µM, the TGI (SF-268 CNS) was over 100 µM and the TGI (OVCAR-5 ovarian) was over 100 µM. For the same molecule, the TGI (OVCAR-3 ovarian) was over 100 µM, the TGI (OVCAR-4 ovarian) was over 100 µM and the TGI (SNB-19 CNS) was over 100 µM. For the same molecule, the TGI (KM12 colon) was over 100 µM, the TGI (M14 melanoma) was over 100 µM and the TGI (HOP-92 NSCLC) was over 100 µM. It also gave a TGI (LXFL 529 NSCLC) of over 100 µM, a TGI (IGROV1 ovarian) of over 100 µM and a TGI (HCT-116 colon) of over 100 µM. For the same molecule, the TGI (DLD-1 colon) was over 100 µM, the TGI (RXF 393 renal) was over 100 µM and the TGI (XF 498 CNS) was over 100 µM. The TGI (DMS 273 small cell lung) was over 100 µM and the TGI (K-562 leukemia) was over 100 µM.
